Marks after values point to notes of the source that are not given here. Starred links: 1 amine or outer side, 2 acyl side, 3 side chain; linkers in the order of their positions; H or OH if unused. Residues, ends and D or L forms follow the SMILES beside them. Groups on a side chain read outwards from the residue. *: point of attachment. C18 diacid = O=C(O)CCCCCCCCCCCCCCCCC(=O)*; γGlu = O=C(O)[C@H](CCC(=O)[*:2])N[*:1]; AEEA = NCCOCCOCC(=O)O
Key:
[1] = Pharmacokinetics, single subcutaneous dose, mice; details: male, CD-1, mouse, plasma, sc, 388 nmol/kg
Protocol: Plasma concentrations of compounds were determined by LC/MS methods. Each method measured the intact compound; peptide plus linked time extension. For each assay, the compound and an analog, used as an internal standard (IS), were extracted from 100% mouse, rat or monkey plasma (25 μl) using acetonitrile. Two distinct layers were formed upon centrifugation with the compound and the IS located in the supernatant layer. An aliquot of the supernatant (80 μl) was transferred to a Thermo Protein Precipitation Plate with water (150 μl) and formic acid (25 μl) followed by mixing. A final 31% acetonitrile in 10% formic acid sample (10 μl) was loaded onto a Supelco Analytical Discovery BIO Wide Pore C5-3 column (5 cm×1 mm, 3 μm). The column effluent was directed into a Thermo Q-Exactive mass spectrometer for detection and quantitation.
Male CD-1 mice were administered a single subcutaneous dose (350, 386 or 388 nmol/kg) of a compound described herein in 20 mM Tris-HCl Tris Buffer (pH 7 or 8) at a volume of 0.05 or 0.06 mL/animal. Blood was collected at 6, 12, 24, 48, 72, 96, 120 and 168 hours postdose for pharmacokinetic characterization (101).

[2] = target: T1, human CRHR2b (Homo sapiens, UniProt Q13324); assay: human CRHR2b cell-based cAMP assay; details: cAMP assay, CHO cells transfected with human CRHR2b; mean ± SEM of runs; read-out: hCRHR2b Average EC50
T1 construct: expressed in transfected cells; host or cells: Chinese Hamster Ovary (CHO) cells, transient transfection
T1 sequence (Q13324 1-438 isoform Q13324-2): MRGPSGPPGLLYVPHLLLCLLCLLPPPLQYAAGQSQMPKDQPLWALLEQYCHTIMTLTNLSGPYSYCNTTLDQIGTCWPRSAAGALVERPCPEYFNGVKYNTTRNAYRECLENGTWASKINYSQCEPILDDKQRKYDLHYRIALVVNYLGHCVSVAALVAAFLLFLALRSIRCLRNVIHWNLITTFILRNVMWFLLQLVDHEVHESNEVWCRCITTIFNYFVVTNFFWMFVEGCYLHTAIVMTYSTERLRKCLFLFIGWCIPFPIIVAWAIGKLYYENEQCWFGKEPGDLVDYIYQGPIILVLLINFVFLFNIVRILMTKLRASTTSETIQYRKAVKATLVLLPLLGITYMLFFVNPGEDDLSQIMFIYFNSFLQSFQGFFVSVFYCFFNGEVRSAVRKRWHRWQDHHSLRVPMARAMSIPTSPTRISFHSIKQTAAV
Method in brief: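 ED50 values are means ± SEM over several runs, curve-fitted from cAMP in pmol, calibrated against unlabeled-cAMP standards. Detection was HTRF competition, ratio 665/620 nm, after 30 min agonist exposure at 37 °C.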

[3] = test system: UniNx db/db AAV renin mice; assay: Uninephrectomized db/db AAV renin model of diabetic nephropathy; format: in vivo
Protocol: The uninephrectomized db/db adeno-associated viral (AAV) renin model represents a progressive model of diabetic kidney disease with hypertension driven by an AAV renin transgene (Am J Physiol Regul Integr Comp Physiol. 309(5):R467-74, (2015)).
The uninephrectomy (UniNx) surgery on female db/db mice on a C57BLKS/J background (obtained from Harlan Laboratories) is performed by Harlan Laboratories at 4 weeks of age with removal of the right kidney to accelerate the diabetic kidney disease. Animals are received at 5 weeks of age and housed in micro-isolator cages at 3 mice per cage and are on a 12 hour light/dark cycle. All db/db mice are fed ad libitum with Purina special diet 5008 and allowed free access to autoclaved water.
Mice are acclimated for 7 weeks prior to administration of AAV Renin (5×10^9 GC) intravenously by the retro-orbital sinus to induce persistent hypertension. Randomization by urine albumin to creatinine ratio (ACR), blood glucose and body weight is done at 15 weeks of age (a point at which renal disease and pathology are established in this model based on observations) into 2 groups of 12 saline control mice and 33 mice to receive Lisinopril treatment.
Dosing with Lisinopril (30 mg/L) begins at 16 weeks of age. After 2 weeks of Lisinopril treatment, the 33 mice are randomized by urine ACR, blood glucose and body weight into 4 groups (one group of 9 mice and 3 groups of 8 mice).
In the 4 groups of UniNx db/db AAV renin mice receiving Lisinopril treatment, either 0.9% physiological saline for injection (“saline control” N=9) or different dose levels of Example 4 (7.2, 24 or 72 nmol/kg, N=8 per dose level) are dosed at 0.2 mL s.c. per injection beginning at 18 weeks of age and continued 3 times weekly for 12 weeks. Albumin and creatinine are measured in urine with a Roche Hitachi Modular Analytics P analyzer with Roche reagents for detection of albumin and creatinine.
For all the groups, the parameters measured are body weight, kidney weight, heart weight, urine albumin to creatinine ratio, serum creatinine and renal pathology scores for mesangial matrix expansion, glomerular fibrosis, tubular regeneration, interstitial inflammation and interstitial fibrosis.
At 15 and 27 weeks of age, blood (30 to 50 uL) from all the UniNx db/db AAV Renin mice is obtained from the tail vein and dropped onto a Precision PCx blood glucose sensor electrode strip (Abbott Laboratories) for blood glucose determination with a MediSense Precision PCx glucometer (Abbott Laboratories). Blood glucose data is used to block the UniNx db/db mice into equivalent groups. Body weight is determined at baseline and at termination with a Metler Toledo Balance. The heart and kidney are removed at necropsy and weighed on a Metler Toledo Balance. Blood (500 ul) is collected from the retro-orbital sinus at termination under isoflurane anesthesia. The clotted blood is centrifuged to obtain serum. Serum is analyzed for creatinine on a Roche Hitachi Modular Analytics P analyzer with reagents from Roche.
Urine is collected by a spot collection method to collect urine over a 2-4 hr time period. An individual mouse is placed on top of a 96 well polypropylene microplate and then covered by a Plexiglas chamber with holes for breathing but no access to food or water. At the end of the time period, the urine is removed from the plate with a micropipette and placed on ice, centrifuged and subjected to albumin and creatinine analysis. Urine albumin, creatinine and glucose are determined on a Roche Hitachi Modular Analytics P analyzer. Urine creatinine is determined with the Creatinine Plus reagent by Roche. For urine albumin, the Roche Microalbumin assay is modified to adapt the calibration curve for measuring urine albumin in mice. Albuminuria was defined as albumin to creatinine ratio (ACR).
Kidneys are removed at study termination, fixed in formalin and processed for paraffin sectioning according to standard methodology. […]

[4] = Lisinopril plus Saline, after 12 weeks, scale none (0) to severe (5)
[5] = UniNx db/db AAV renin mice, Lisinopril plus Saline, after 12 weeks
[6] = UniNx db/db AAV renin mice, Lisinopril plus Saline, baseline

CC[C@H](C)[C@H](NC(C)=O)C(=O)N[C@H](C(=O)N[C@@H](CC(C)C)C(=O)N[C@@H](CO)C(=O)N[C@@H](CC(C)C)C(=O)N[C@@H](CC(=O)O)C(=O)N[C@H](C(=O)N1CCC[C@H]1C(=O)N[C@H](C(=O)NCC(=O)N[C@@H](CC(C)C)C(=O)N[C@@H](CC(C)C)C(=O)N[C@@H](CCC(N)=O)C(=O)N[C@H](C(=O)N[C@@H](CC(C)C)C(=O)N[C@@H](CC(C)C)C(=O)N[C@@H](CCC(=O)O)C(=O)N[C@@H](CCC(N)=O)C(=O)N[C@@H](CCC(=O)O)C(=O)N[C@@H](CCCCN)C(=O)N[C@@H](CCC(N)=O)C(=O)N[C@@H](CCC(=O)O)C(=O)N[C@@H](CCCCN)C(=O)N[C@@H](CCC(=O)O)C(=O)N[C@@H](CCCCN)C(=O)N[C@@H](CCC(N)=O)C(=O)N[C@@H](CCC(N)=O)C(=O)N[C@@H](C)C(=O)N[C@@H](CCCCNC(=O)COCCOCCNC(=O)COCCOCCNC(=O)CC[C@H](NC(=O)CC[C@H](NC(=O)CCCCCCCCCCCCCCCCC(=O)O)C(=O)O)C(=O)O)C(=O)N[C@H](C(=O)N[C@@H](CC(N)=O)C(=O)N[C@@H](C)C(=O)N[C@@H](CCC(N)=O)C(=O)N[C@H](C(=O)N[C@@H](CC(C)C)C(=O)N[C@@H](C)C(=O)N[C@@H](CCC(N)=O)C(=O)N[C@H](C(N)=O)C(C)C)[C@@H](C)CC)[C@@H](C)O)[C@@H](C)CC)[C@@H](C)CC)C(C)C)C(C)C [Example 1] (Ac-IVLSLDVPIGLLQILLEQEKQEKEKQQAK([AEEA-AEEA-γGlu-γGlu-C18 diacid])TNAQILAQV-NH2)
AUC(0-inf) [1]: 32.2 µM·h | CL/F [1]: 0.202 mL/min/kg | Cmax [1]: 1150 nM | Tmax [1]: 12 h | half-life [1]: 16 h | EC50 [2]: 2.44 ± 1.36 nM

NCCCC[C@H](N[C@@H](CCc1ccccc1)C(=O)O)C(=O)N1CCC[C@H]1C(=O)O [Lisinopril]
Glomerular Fibrosis, pathology score [3, 4]: 1.4 ± 0.2 ^a | Interstitial Fibrosis, pathology score [3, 4]: 2.0 ± 0.3 ^ | Interstitial Inflammation, pathology score [3, 4]: 1.1 ± 0.3 ^a | Mesangial Matrix Expansion, pathology score [3, 4]: 2.1 ± 0.1 ^a | Tubular Regeneration, pathology score [3, 4]: 2.0 ± 0.2 ^a | Albumin to Creatinine Ratio (ACR) ([3]; Lisinopril plus Saline, week 0 of treatment with Example 4): 15203 ± 2835 ^ | Albumin to Creatinine Ratio (ACR) ([3]; Lisinopril plus Saline, week 1): 16491 ± 3362 ^ | Albumin to Creatinine Ratio (ACR) ([3]; Lisinopril plus Saline, week 2): 16160 ± 4162 ^a | Albumin to Creatinine Ratio (ACR) ([3]; Lisinopril plus Saline, week 3): 13069 ± 3295 ^a | Albumin to Creatinine Ratio (ACR) ([3]; Lisinopril plus Saline, week 6): 11584 ± 3132 ^a | Albumin to Creatinine Ratio (ACR) ([3]; Lisinopril plus Saline, week 8): 12484 ± 4626 ^a | Albumin to Creatinine Ratio (ACR) ([3]; Lisinopril plus Saline, week 10): 20429 ± 4998 ^a | Albumin to Creatinine Ratio (ACR) ([3]; Lisinopril plus Saline, week 12): 19075 ± 6268 ^a | deaths over the course of the study ([3]; Lisinopril plus saline group (N=9)): 2 | Final Blood Glucose [3, 5]: 466 mg/dL | Final Body Weight [3, 5]: 61.8 g | Heart Weight [3, 5]: 227 mgs | Kidney Weight [3, 5]: 392 mgs | Serum Creatinine [3, 5]: 0.130 mg/dL | Initial Blood Glucose [3, 6]: 444 mg/dL | Initial Body Weight [3, 6]: 61.6 g

From US10894817B2, “Fatty acid modified urocortin-2 analogs for the treatment of diabetes and chronic kidney disease” (priority 2016, dated 2021)
